Results from ChEMBL document CHEMBL5346937, “Repurposing 1,2,4-oxadiazoles as SARS-CoV-2 PLpro inhibitors and investigation of their possible viral entry blockade potential” (Eur J Med Chem, 2023).

How the values were obtained:
WI-38 = assay: (§1) Cytotoxicity against human WI-38 cells assessed as reduction in cell viability incubated for 72 hrs by MTT assay; type: toxicity, cell-based; details: wi-38, 72 h
A549 = assay: Cytotoxicity against human […] A549 cells assessed as reduction in cell viability incubated for 72 hrs by MTT assay; type: functional; details: for CC50: Homo sapiens, A549
[1] = biological target: Replicase polyprotein 1ab (Severe acute respiratory syndrome coronavirus 2) (UniProt P0DTD1); assay: Inhibition of SARS-CoV-2 PLpro at 10 uM using Arg-Leu-Arg-Gly-Gly-AMC as substrate preincubated for 5 mins followed by substrate addition measured after 6 mins by fluorescence based assay relative to control; details: time 11.0 min
[2] = biological target: Spike glycoprotein/Angiotensin-converting enzyme 2 (Severe acute respiratory syndrome coronavirus 2) (UniProt Q9BYF1+P0DTC2); assay: Inhibition of SARS-CoV-2 spike protein RBD- human ACE2 interaction at 10 uM pretreated with SARS-CoV-2 spike RBD for 2 hrs followed by ACE2 addition and measured after 2 hrs by […] based ELISA analysis relative to control; type: protein assay; details: time 4.0 hrs
[3] = as §1; type: toxicity, cell-based; details: WI-38 cells
SARS-CoV-2 = assay: Antiviral activity against SARS-CoV-2 assessed as inhibition of viral growth; type: functional, organism-based; details: Severe acute respiratory syndrome coronavirus 2
[4] = biological target: Replicase polyprotein 1ab (Severe acute respiratory syndrome coronavirus 2, UniProt P0DTD1); assay: Inhibition of SARS-CoV-2 PLpro using Arg-Leu-Arg-Gly-Gly-AMC as substrate preincubated for 5 mins followed by substrate addition measured after 6 mins by fluorescence based assay
[5] = biological target: Spike glycoprotein/Angiotensin-converting enzyme 2 (Severe acute respiratory syndrome coronavirus 2, UniProt P0DTC2+Q9BYF1); assay: Inhibition of SARS-CoV-2 spike protein RBD- human ACE2 interaction pretreated with SARS-CoV-2 spike RBD for 2 hrs followed by ACE2 addition and measured after 2 hrs by […] based ELISA analysis; type: protein assay
Sequence of Spike glycoprotein/Angiotensin-converting enzyme 2 (Q9BYF1 18-805 limits assumed, other chains not shown): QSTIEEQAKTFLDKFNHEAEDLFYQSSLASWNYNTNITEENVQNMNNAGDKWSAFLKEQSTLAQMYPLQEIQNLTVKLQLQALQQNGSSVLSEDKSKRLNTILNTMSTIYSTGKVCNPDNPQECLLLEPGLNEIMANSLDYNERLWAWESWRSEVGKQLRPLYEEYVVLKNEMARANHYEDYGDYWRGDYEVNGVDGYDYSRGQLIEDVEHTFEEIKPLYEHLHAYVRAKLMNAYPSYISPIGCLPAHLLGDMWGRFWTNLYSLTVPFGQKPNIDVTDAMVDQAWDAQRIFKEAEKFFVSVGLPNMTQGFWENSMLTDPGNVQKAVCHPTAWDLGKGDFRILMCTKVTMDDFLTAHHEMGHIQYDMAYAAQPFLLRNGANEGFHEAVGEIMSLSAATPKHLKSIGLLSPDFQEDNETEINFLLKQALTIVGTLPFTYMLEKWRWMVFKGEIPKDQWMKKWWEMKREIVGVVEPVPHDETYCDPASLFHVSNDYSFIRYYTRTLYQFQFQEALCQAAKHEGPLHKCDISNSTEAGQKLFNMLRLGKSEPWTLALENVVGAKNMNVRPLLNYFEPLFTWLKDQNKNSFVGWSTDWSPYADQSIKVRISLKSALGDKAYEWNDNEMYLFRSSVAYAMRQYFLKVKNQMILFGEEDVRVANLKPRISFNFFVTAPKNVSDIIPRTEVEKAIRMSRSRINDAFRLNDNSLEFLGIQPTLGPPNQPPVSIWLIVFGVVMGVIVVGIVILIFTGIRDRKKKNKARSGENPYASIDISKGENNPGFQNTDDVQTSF

[6] = Octanol/water partition coefficient, logP of the compound by HPLC analysis; type: physicochemical

With `Cc1ncc(COP(=O)([O-])O)c(/C=N/c2ccccc2-c2noc(-c3ccccc3)n2)c1O.[Na+]` the CC50 (WI-38) was 10.1 µM, the EC100 (WI-38) was 2.03 µM and the EC100 (A549) was 0.655 µM. It also gave a CC50 (A549) of 6.46 µM, an inhibition [1] of 22.5% and an inhibition [2] of 36.7%.

With `Nc1ccccc1-c1noc(-c2ccccc2)n1` the CC50 at 72 h [3] was 36.5 µM, the EC100 (WI-38) was 7.299 µM and the EC100 (A549) was 5.886 µM. It also gave a CC50 (A549) of 28.7 µM, an inhibition [1] of 20.8% and an inhibition [2] of 23.3%.

For `Nc1ccccc1-c1noc(-c2ccccc2N)n1`, the CC50 (WI-38) was 48.7 µM, the EC100 (WI-38) was 9.738 µM and the EC100 (A549) was 12.25 µM. It also gave a CC50 (A549) of 29 µM, an inhibition [1] of 16.2% and an inhibition [2] of 26.1%.

With `CCN(CCO)CCCC(C)Nc1ccnc2cc(Cl)ccc12` (configuration not stated) [HYDROXYCHLOROQUINE] the IC50 (SARS-CoV-2) was 0.72 µM.

With `[N-]=[N+]=Nc1ccccc1-c1noc(-c2ccccc2O)n1` the CC50 (WI-38) was 38.5 µM, the EC100 (WI-38) was 7.701 µM and the EC100 (A549) was 6.707 µM. It also gave a CC50 (A549) of 28.2 µM and an inhibition [1] of 1.1%.

With `Nc1ccccc1-c1noc(-c2ccncc2)n1` the CC50 (WI-38) was 51.8 µM, the EC100 (WI-38) was 10.356 µM and the EC100 (A549) was 8.352 µM. For the same molecule, the CC50 (A549) was 45.8 µM, the IC50 ([4]; read-out: IC50) was 7.2 µM and the IC50 ([4]; read-out: pIC50 (converted)) was 7.21 µM. It also gave an inhibition [1] of 58.6%, an inhibition [2] of 65.6% and an IC50 ([5]; read-out: IC50) of 8.67 µM. For the same molecule, the IC50 ([5]; read-out: pIC50 (converted)) was 8.69 µM and the logP [6] was 3.8.

In the case of `Nc1ccccc1-c1nc(-c2ccc(C(F)(F)F)cc2)no1`, the CC50 (WI-38) is reported as 5.78 µM, the EC100 (WI-38) is reported as 1.156 µM and the EC100 (A549) is reported as 0.373 µM. It also gave a CC50 (A549) of 2.37 µM and an inhibition [1] of 5%.

`Cc1ncc(COP(=O)([O-])O)c(/C=N/c2ccccc2-c2noc(-c3ccccc3O)n2)c1O.[Na+]` gave a CC50 (WI-38) of 3.21 µM, an EC100 (WI-38) of 4.956 µM and an EC100 (A549) of 2.718 µM. It also gave a CC50 (A549) of 1.03 µM, an inhibition [1] of 13.9% and an inhibition [2] of 26.1%.

With `Oc1ccccc1-c1noc(-c2ccccc2O)n1` the CC50 (WI-38) was 26 µM, the EC100 (WI-38) was 5.208 µM and the EC100 (A549) was 3.36 µM. It also gave a CC50 (A549) of 19.5 µM and an inhibition [1] of 11.7%.

`Nc1ccccc1-c1noc(-c2ccccc2O)n1` showed a CC50 (WI-38) of 32.4 µM, an EC100 (WI-38) of 6.474 µM and an EC100 (A549) of 4.114 µM. For the same molecule, the CC50 (A549) was 22 µM, the inhibition [1] was 13.6% and the inhibition [2] was 18.1%.

`CCOC(=O)CN1C(=O)COc2ccccc2-c2nc(no2)-c2ccccc21` showed a CC50 (WI-38) of 31.6 µM, an EC100 (WI-38) of 6.313 µM and an EC100 (A549) of 7.127 µM. The CC50 (A549) was 14.2 µM, the inhibition [1] was 18.1% and the inhibition [2] was 15.6%.

For `CC(=O)Oc1ccccc1-c1nc(-c2ccccc2N(C(C)=O)C(C)=O)no1`, the EC100 (WI-38) was 0.641 µM, the EC100 (A549) was 0.207 µM and the CC50 (A549) was 20.5 µM. It also gave an inhibition [1] of 17.1% and an inhibition [2] of 44.4%.

`Nc1ccccc1-c1nc(-c2ccccc2)no1` gave a CC50 (WI-38) of 57.2 µM, an EC100 (WI-38) of 19.059 µM and an EC100 (A549) of 11.681 µM. For the same molecule, the CC50 (A549) was 24.7 µM, the inhibition [1] was 21.1% and the inhibition [2] was 31.4%.

`O=C(O)CN1C(=O)COc2ccccc2-c2nc(no2)-c2ccccc21` showed a CC50 (WI-38) of 23.8 µM, an EC100 (WI-38) of 5.727 µM and an EC100 (A549) of 3.695 µM. For the same molecule, the CC50 (A549) was 19.6 µM, the inhibition [1] was 5.9% and the inhibition [2] was 10.6%.

With `O=CNc1ccccc1-c1noc(-c2ccccc2O)n1` the CC50 (WI-38) was 40.6 µM, the EC100 (WI-38) was 8.116 µM and the EC100 (A549) was 15.708 µM. It also gave a CC50 (A549) of 31.4 µM, an inhibition [1] of 35.1% and an inhibition [2] of 44.3%.

Molecule `CCN(CC)CCCC(C)Nc1ccnc2cc(Cl)ccc12` (configuration not stated) [CHLOROQUINE] has an IC50 (SARS-CoV-2) of 1.13 µM.
